Experimental data published in patent publication US7348427B2, “Antipathogenic benzamide compounds” (Genesoft Pharmaceuticals, Inc., priority 2001, dated 2008).
pKd: −log10 of the molar value. In brackets after ≈: the same amount, converted by molar mass.

How the values were obtained:
S. pneumoniae ATCC 49619 = experiment: MIC, NCCLS broth microdilution assay; format: cell-based, Streptococcus pneumoniae; conditions: H = S. pneumoniae ATCC 49619
Method in brief: (§1)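 MICs were determined by NCCLS broth microdilution following documents M7-A4 and M11-A4 (1997).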

[1] = system: Streptococcus pneumoniae (ATCC 51422, a penicillin resistant strain (PRSP)); experiment: MIC, NCCLS broth microdilution assay; format: cell-based; conditions: I = S. pneumoniae ATCC 51422
Method in brief: (§2)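 Minimal inhibitory concentration is reported, obtained by the NCCLS broth microdilution method (documents M7-A4, M11-A4, M27-T). For the fungal strain, the procedure of the 1995 Manual of Clinical Microbiology applies.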

[2] = system: Staphylococcus epidermidis (ATCC 12228); experiment: MIC, NCCLS broth microdilution assay; format: cell-based; conditions: G = S. epidermidis ATCC 12228
Method in brief: as §2

[3] = system: Staphylococcus aureus (ATCC 27660, a methicillin resistant strain (MRSA)); experiment: MIC, NCCLS broth microdilution assay; format: cell-based; conditions: F = S. aureus ATCC 27660
Method in brief: as §2

[4] = system: Staphylococcus aureus (ATCC 13709, a methicillin sensitive strain (MSSA)); experiment: MIC, NCCLS broth microdilution assay; format: cell-based; conditions: E = S. aureus ATCC 13709
Method in brief: as §2

[5] = system: Enterococcus faecium (ATCC 51559, a vancomycin resistant strain (VRE)); experiment: MIC, NCCLS broth microdilution assay; format: cell-based; conditions: D = E. faecium ATCC 51559
Method in brief: as §2

[6] = system: Bacillus cereus (ATCC 11778); experiment: MIC, NCCLS broth microdilution assay; format: cell-based; conditions: A = B. cereus ATCC 11778
Method in brief: as §2

[7] = biological target: dsDNA target sequence AATTAATCAT (352 bp fragment, Plasmid B); experiment: Quantitative DNase I footprint titration, dsDNA binding; conditions: 352 bp/B, 22° C., pH 7.0, read-out: Dissociation Constant Kd
[8] = biological target: dsDNA target sequence AATACT (310 bp fragment, Plasmid A); experiment: as above; conditions: 310 bp/A, 22° C., pH 7.0, read-out: Dissociation Constant Kd
[9] = system: Candida albicans (ATCC 38247); experiment: Antifungal MIC assay; format: cell-based; conditions: B = C. albicans ATCC 38247
Method in brief: as §2

E. faecalis ATCC 29212 = experiment: MIC, NCCLS broth microdilution assay; format: cell-based, Enterococcus faecalis; conditions: C = E. faecalis ATCC 29212
Method in brief: as §1

[10] = system: methicillin resistant Staphylococcus aureus ATCC 33591; experiment: Murine neutropenic thigh model; format: in vivo; conditions: neutropenic female CF1 mice, 50 mg/kg intravenously two hours post infection, 6 hr after treatment
Description: A S. aureus ATCC 33591 culture was grown to log phase overnight and diluted in phosphate buffered saline (pH 7.2) to an optical density of about 0.1 at 600 nm, giving an approximate concentration of 10^8 cfu/mL. The suspension was diluted 1:100 in phosphate buffered saline (pH 7.2) for a final concentration of 10^6 cfu/mL.
Outbred female CF1 mice (approx. 20 gram body weight) were rendered neutropenic by treatment with cyclophosphamide (200 mg/kg body weight, intraperitoneal injection) at 2 and 4 days prior to inoculation. Groups of 5 mice were inoculated with 0.05 mL of the bacteria (approx. 10^6 cfu/mL) into the anterior thigh. Each group was treated intravenously two hours post infection with vehicle (phosphate buffered saline) or test compound. The mice were sacrificed at either 6 or 24 hrs after treatment and thighs were collected aseptically. Each thigh was weighed, placed into sterile saline, and homogenized. The tissue homogenates were diluted appropriately for plating on agar plates. Colony counts were recorded (cfu/gram) and compared to control groups.
In vivo efficacy was shown by a decrease in colony count (log cfu/gram of tissue) in the compound-treated animals when compared against the colony count in animals given only the vehicle.

[11] = Staphylococcus aureus, read-out: Minimum Inhibitory Concentration (MIC)

Row | Compound | pKd [7] | Minimum Inhibitory Concentration (MIC) (S. pneumoniae ATCC 49619) | Minimum Inhibitory Concentration (MIC) [1] | Minimum Inhibitory Concentration (MIC) [2] | Minimum Inhibitory Concentration (MIC) [3] | Minimum Inhibitory Concentration (MIC) [4] | Minimum Inhibitory Concentration (MIC) [5] | Minimum Inhibitory Concentration (MIC) [6] | Minimum Inhibitory Concentration (MIC) [9] | Minimum Inhibitory Concentration (MIC) (E. faecalis ATCC 29212) | Colony Count (log cfu/gram) Compound [10] | also measured
1 | Cn1cc(NC(=O)c2cc(NC(=O)c3cc(NC(=O)c4ccc(Cl)cc4F)c[nH]3)cn2C)cc1C(=O)NCCN1CCOCC1 [Compound A-3] | 9.00 |  |  |  |  |  |  |  |  |  |  | MIC (S. pneumoniae ATCC 49619; Streptococcus pneumoniae, ATCC49619, read-out: Minimum Inhibitory Concentration (MIC)): ≤ 4 µg/mL; MIC ([1]; Streptococcus pneumoniae, read-out: Minimum Inhibitory Concentration (MIC)): ≤ 4 µg/mL; MIC ([2]; Staphylococcus epidermidis, ATCC12228, read-out: Minimum Inhibitory Concentration (MIC)): ≤ 4 µg/mL; MIC [3, 11]: ≤ 4 µg/mL; MIC [4, 11]: ≤ 4 µg/mL; MIC ([5]; Enterococcus faecium, read-out: Minimum Inhibitory Concentration (MIC)): ≤ 4 µg/mL; MIC ([6]; Bacillus cereus, ATCC11778, read-out: Minimum Inhibitory Concentration (MIC)): ≤ 4 µg/mL; pKd [8]: 8.30; MIC ([9]; Candida albicans, ATCC38247, read-out: Minimum Inhibitory Concentration (MIC)): 12 to 32 µg/mL (≈ 18.8 to 50.1 µM); MIC (E. faecalis ATCC 29212; Enterococcus faecalis, ATCC29212, read-out: Minimum Inhibitory Concentration (MIC)): ≤ 4 µg/mL
2 | Cn1cc(NC(=O)c2cc(NC(=O)c3cc(NC(=O)c4ccc(F)cc4F)cn3C)cn2C)cc1C(=O)NCCN1CCCCCC1 [Compound B-18] | 8.70 | +++ (+++ = MIC ≦ 4) | +++ (+++ = MIC ≦ 4) | +++ (+++ = MIC ≦ 4) | +++ (+++ = MIC ≦ 4) | +++ (+++ = MIC ≦ 4) | +++ (+++ = MIC ≦ 4) | +++ (+++ = MIC ≦ 4) | ++ (++ = 4 < MIC < 12) | +++ (+++ = MIC ≦ 4) |  | 
3 | Cc1cc(NC(=O)c2cc(NC(=O)c3cc(NC(=O)c4ccc(F)cc4F)cn3C)cn2CCCN(C)C)sn1 [Compound D-3] |  | +++ (+++ = MIC ≦ 4) | +++ (+++ = MIC ≦ 4) | +++ (+++ = MIC ≦ 4) | +++ (+++ = MIC ≦ 4) | +++ (+++ = MIC ≦ 4) | + (+ = 12 ≦ MIC ≦ 32) | +++ (+++ = MIC ≦ 4) | +++ (+++ = MIC ≦ 4) | +++ (+++ = MIC ≦ 4) | 6.28 log cfu/gram | 
4 | Cc1cc(NC(=O)c2cc(NC(=O)c3cc(NC(=O)c4ccc(Cl)cc4F)c[nH]3)cn2CCCN(C)C)sn1 [Compound D-11] |  | +++ (+++ = MIC ≦ 4) | +++ (+++ = MIC ≦ 4) | +++ (+++ = MIC ≦ 4) | +++ (+++ = MIC ≦ 4) | +++ (+++ = MIC ≦ 4) | +++ (+++ = MIC ≦ 4) | +++ (+++ = MIC ≦ 4) | +++ (+++ = MIC ≦ 4) | +++ (+++ = MIC ≦ 4) | 6.25 log cfu/gram | 
